Data reported in article PMC5218480 (PLoS ONE, 2017).

Test system: MV-4-11 cells
Experiment: Gene expression microarray analysis (Affymetrix PrimeView) and GSEA
Format: cell-based, human
Design: RFU PODN (11730768_x_at) / Fold change /veh PODN (11730768_x_at) / RFU LINC00158 (11744669_a_at) / Fold change /veh LINC00158 (11744669_a_at) / RFU DUSP10 (11751237_a_at) / Fold change /veh DUSP10 (11751237_a_at) / RFU ID3 (11757404_x_at) / Fold change /veh ID3 (11757404_x_at) / RFU PLEKHG5 (11737974_s_at) / Fold change /veh PLEKHG5 (11737974_s_at) / RFU LRRC4B (11730491_at) / Fold change /veh LRRC4B (11730491_at) / RFU GIMAP4 (11747438_a_at) / Fold change /veh GIMAP4 (11747438_a_at) / RFU KRT8 (11758183_x_at) / Fold change /veh KRT8 (11758183_x_at) / RFU CNN1 (11734310_a_at) / Fold change /veh CNN1 (11734310_a_at) / RFU VPS37D (11726825_at) / Fold change /veh VPS37D (11726825_at) / RFU C10orf10 (11716522_x_at) / Fold change /veh C10orf10 (11716522_x_at) / RFU KIR2DL2 /// KIR2DL4 /// KIR2DL5A /// KIR2DL5B /// KIR2DS1 /// KIR2DS2 /// KIR2DS3 /// KIR2DS4 /// KIR3DL3 /// KIR3DL3 /// KIR3DS1 (11738374_at) / Fold change /veh KIR2DL2 /// KIR2DL4 /// KIR2DL5A /// KIR2DL5B /// KIR2DS1 /// KIR2DS2 /// KIR2DS3 /// KIR2DS4 /// KIR3DL3 /// KIR3DL3 /// KIR3DS1 (11738374_at) / RFU C1QL1 (11718748_at) / Fold change /veh C1QL1 (11718748_at) / RFU TMPRSS4 (11747572_a_at) / Fold change /veh TMPRSS4 (11747572_a_at) / RFU HAMP (11756126_x_at) / Fold change /veh HAMP (11756126_x_at) / RFU RNFT2 (11725882_a_at) / Fold change /veh RNFT2 (11725882_a_at) / RFU NR4A2 (11747474_a_at) / Fold change /veh NR4A2 (11747474_a_at) / RFU ABCC12 (11746883_a_at) / Fold change /veh ABCC12 (11746883_a_at) / RFU TMEM136 (11760407_x_at) / Fold change /veh TMEM136 (11760407_x_at) / RFU CLDN22 /// WWC2 (11732394_at) / Fold change /veh CLDN22 /// WWC2 (11732394_at) / RFU HLA-DPB1 (11760878_x_at) / Fold change /veh HLA-DPB1 (11760878_x_at) / RFU SPINT1 (11716480_a_at) / Fold change /veh SPINT1 (11716480_a_at) / RFU GAP43 (11754022_s_at) / Fold change /veh GAP43 (11754022_s_at) / RFU A4GNT (11735810_at) / Fold change /veh A4GNT (11735810_at) / RFU PRB3 (11715151_x_at) / Fold change /veh PRB3 (11715151_x_at) / RFU TUBB4B (11761932_at) / Fold change /veh TUBB4B (11761932_at) / RFU CAPN14 (11732068_a_at) / Fold change /veh CAPN14 (11732068_a_at) / RFU TMCC2 (11721928_a_at) / Fold change /veh TMCC2 (11721928_a_at) / RFU IRGQ (11745062_a_at) / Fold change /veh IRGQ (11745062_a_at) / RFU FAM174B (11720279_a_at) / Fold change /veh FAM174B (11720279_a_at) / RFU TMPRSS4 (11748680_a_at) / Fold change /veh TMPRSS4 (11748680_a_at) / RFU FAM212B (11763350_a_at) / Fold change /veh FAM212B (11763350_a_at) / RFU PLEKHG5 (11743358_a_at) / Fold change /veh PLEKHG5 (11743358_a_at) / RFU ZSCAN30 (11745921_a_at) / Fold change /veh ZSCAN30 (11745921_a_at) / RFU CMKLR1 (11741424_a_at) / Fold change /veh CMKLR1 (11741424_a_at) / RFU LOC101060620 /// MAPK8IP1 (11723275_at) / Fold change /veh LOC101060620 /// MAPK8IP1 (11723275_at) / RFU SPTSSB (11747773_x_at) / Fold change /veh SPTSSB (11747773_x_at) / RFU PRSS12 (11739890_at) / Fold change /veh PRSS12 (11739890_at) / RFU BIN1 (11741810_x_at) / Fold change /veh BIN1 (11741810_x_at) / RFU WNT11 (11732464_a_at) / Fold change /veh WNT11 (11732464_a_at) / RFU C10orf10 (11716521_a_at) / Fold change /veh C10orf10 (11716521_a_at) / RFU C5orf56 (11738089_at) / Fold change /veh C5orf56 (11738089_at) / RFU CYB561 (11721691_x_at) / Fold change /veh CYB561 (11721691_x_at) / RFU ANKRD19P (11752326_a_at) / Fold change /veh ANKRD19P (11752326_a_at) / RFU OR2T12 /// OR2T33 /// OR2T8 (11738714_s_at) / Fold change /veh OR2T12 /// OR2T33 /// OR2T8 (11738714_s_at) / RFU VCAN (11748164_a_at) / Fold change /veh VCAN (11748164_a_at) / RFU JSRP1 (11732532_at) / Fold change /veh JSRP1 (11732532_at) / RFU KRTAP10-11 (11738290_x_at) / Fold change /veh KRTAP10-11 (11738290_x_at) / RFU MYO3A (11730013_a_at) / Fold change /veh MYO3A (11730013_a_at) / RFU EBF3 (11725865_a_at) / Fold change /veh EBF3 (11725865_a_at) / RFU CAMK2N1 (11719241_x_at) / Fold change /veh CAMK2N1 (11719241_x_at) / RFU C5orf56 (11738088_a_at) / Fold change /veh C5orf56 (11738088_a_at) / RFU OLFML3 (11715873_a_at) / Fold change /veh OLFML3 (11715873_a_at) / RFU LOC100653217 /// NTM (11731650_a_at) / Fold change /veh LOC100653217 /// NTM (11731650_a_at) / RFU MAPK11 (11762145_a_at) / Fold change /veh MAPK11 (11762145_a_at) / RFU FIZ1 (11724087_x_at) / Fold change /veh FIZ1 (11724087_x_at) / RFU OASL (11726364_x_at) / Fold change /veh OASL (11726364_x_at) / RFU SOX15 (11748057_x_at) / Fold change /veh SOX15 (11748057_x_at) / RFU CD79A (11719716_a_at) / Fold change /veh CD79A (11719716_a_at) / RFU HIST1H1D (11736915_at) / Fold change /veh HIST1H1D (11736915_at) / RFU CASKIN2 (11723855_a_at) / Fold change /veh CASKIN2 (11723855_a_at) / RFU LOC730098 (11760151_x_at) / Fold change /veh LOC730098 (11760151_x_at) / RFU OR4N2 (11742367_at) / Fold change /veh OR4N2 (11742367_at) / RFU PRRT2 (11749266_a_at) / Fold change /veh PRRT2 (11749266_a_at) / RFU SNX32 (11753110_a_at) / Fold change /veh SNX32 (11753110_a_at) / RFU CDHR5 (11726645_a_at) / Fold change /veh CDHR5 (11726645_a_at) / RFU RCAN1 (11760418_a_at) / Fold change /veh RCAN1 (11760418_a_at) / RFU FAM167A (11723789_a_at) / Fold change /veh FAM167A (11723789_a_at) / RFU FAM26E (11764081_at) / Fold change /veh FAM26E (11764081_at) / RFU ISYNA1 (11749810_s_at) / Fold change /veh ISYNA1 (11749810_s_at) / RFU ACY1 (11761880_at) / Fold change /veh ACY1 (11761880_at) / RFU 11764098_at / Fold change /veh 11764098_at / RFU SAMD14 (11745864_x_at) / Fold change /veh SAMD14 (11745864_x_at) / RFU NPB (11741838_a_at) / Fold change /veh NPB (11741838_a_at) / RFU TMPRSS6 (11731388_a_at) / Fold change /veh TMPRSS6 (11731388_a_at) / RFU KRTAP10-2 (11738614_at) / Fold change /veh KRTAP10-2 (11738614_at) / RFU ARHGAP8 /// PRR5-ARHGAP8 (11727945_x_at) / Fold change /veh ARHGAP8 /// PRR5-ARHGAP8 (11727945_x_at) / RFU KRTAP5-7 /// NADSYN1 (11734609_at) / Fold change /veh KRTAP5-7 /// NADSYN1 (11734609_at) / RFU RASL12 (11751679_a_at) / Fold change /veh RASL12 (11751679_a_at) / RFU CDKN2B (11736163_a_at) / Fold change /veh CDKN2B (11736163_a_at) / RFU PRF1 (11729649_at) / Fold change /veh PRF1 (11729649_at) / RFU, ZNF638 /// ZNF638-IT1 / Fold change vs veh, ZNF638 /// ZNF638-IT1 / RFU, PANK3 / Fold change vs veh, PANK3 / RFU, SH3YL1 / Fold change vs veh, SH3YL1 / RFU, ZEB2 / Fold change vs veh, ZEB2 / RFU, NRIP1 / Fold change vs veh, NRIP1 / RFU, PTTG1IP / Fold change vs veh, PTTG1IP / RFU, CAPN2 / Fold change vs veh, CAPN2 / RFU, MED14 / Fold change vs veh, MED14 / RFU, SNORA58 / Fold change vs veh, SNORA58 / RFU, C1orf63 / Fold change vs veh, C1orf63 / RFU, LRRFIP1 / Fold change vs veh, LRRFIP1 / RFU, NDUFAF7 / Fold change vs veh, NDUFAF7 / RFU, SLC12A2 / Fold change vs veh, SLC12A2 / RFU, IBTK / Fold change vs veh, IBTK / RFU, ESF1 / Fold change vs veh, ESF1 / Fold change vs veh, TMEM50B / RFU, TAOK1 / Fold change vs veh, TAOK1 / RFU, ACBD3 / Fold change vs veh, ACBD3 / RFU, TMA16 / Fold change vs veh, TMA16 / RFU, RWDD3 / Fold change vs veh, RWDD3 / RFU, BCAT1 / Fold change vs veh, BCAT1 / RFU, EDEM3 / Fold change vs veh, EDEM3 / RFU, TMEM33 / Fold change vs veh, TMEM33 / RFU, WDR75 / Fold change vs veh, WDR75 / RFU, AHCTF1 / Fold change vs veh, AHCTF1 / RFU, TFRC / Fold change vs veh, TFRC / RFU, ZDHHC17 / Fold change vs veh, ZDHHC17 / RFU, NOM1 / Fold change vs veh, NOM1 / RFU, ARL8B / Fold change vs veh, ARL8B / RFU, ZBTB11 / Fold change vs veh, ZBTB11 / RFU, TAMM41 / Fold change vs veh, TAMM41 / RFU, KIAA1704 /// LOC100996395 / Fold change vs veh, KIAA1704 /// LOC100996395 / RFU, ING1 / Fold change vs veh, ING1 / RFU, TRMT61B / Fold change vs veh, TRMT61B / RFU, FUBP3 / Fold change vs veh, FUBP3 / RFU, TP53 / Fold change vs veh, TP53 / RFU, TNKS2 / Fold change vs veh, TNKS2 / RFU, ZFP14 / Fold change vs veh, ZFP14 / RFU, ACTR2 / Fold change vs veh, ACTR2 / RFU, PPP3R1 / Fold change vs veh, PPP3R1 / RFU, PIK3R1 / Fold change vs veh, PIK3R1 / RFU, HNRNPA1 / Fold change vs veh, HNRNPA1 / RFU, RNF170 / Fold change vs veh, RNF170 / RFU, ZNF28 / Fold change vs veh, ZNF28 / RFU, RNGTT / Fold change vs veh, RNGTT / RFU, OGT / Fold change vs veh, OGT / RFU, BRD1 / Fold change vs veh, BRD1 / RFU, MARS / Fold change vs veh, MARS / RFU, ZNF655 / Fold change vs veh, ZNF655 / RFU, FAHD1 / Fold change vs veh, FAHD1 / RFU, BDP1 / Fold change vs veh, BDP1 / RFU, LRRCC1 / Fold change vs veh, LRRCC1 / RFU, ARID1A / Fold change vs veh, ARID1A / RFU, ZNF146 / Fold change vs veh, ZNF146 / RFU, ZNF330 / Fold change vs veh, ZNF330 / RFU, GPN3 / Fold change vs veh, GPN3 / RFU, C9orf123 / Fold change vs veh, C9orf123 / RFU, N4BP2L2 / Fold change vs veh, N4BP2L2 / RFU, ARFIP1 / Fold change vs veh, ARFIP1 / RFU, FAM179B / Fold change vs veh, FAM179B / RFU, BCL10 / Fold change vs veh, BCL10 / RFU, UHRF1BP1L / Fold change vs veh, UHRF1BP1L / RFU, BET1 / Fold change vs veh, BET1 / RFU, CNOT2 / Fold change vs veh, CNOT2 / RFU, ZNF268 / Fold change vs veh, ZNF268 / Fold change vs veh, ZNF507 / RFU, DGCR2 / Fold change vs veh, DGCR2 / RFU, WDSUB1 / Fold change vs veh, WDSUB1 / Fold change vs veh, HSP90B1 /// MIR3652 / RFU, ADSS / Fold change vs veh, ADSS / RFU, GK / Fold change vs veh, GK / RFU, ZNF148 / Fold change vs veh, ZNF148 / RFU, TAF9 / Fold change vs veh, TAF9 / RFU, SLC1A5 / Fold change vs veh, SLC1A5 / RFU, SLMO2 / Fold change vs veh, SLMO2 / RFU, ABCC4 / Fold change vs veh, ABCC4 / RFU, LOC101060439 /// RAP1B / Fold change vs veh, LOC101060439 /// RAP1B / RFU, RFX7 / Fold change vs veh, RFX7 / RFU, GTPBP10 / Fold change vs veh, GTPBP10 / RFU, CNEP1R1 / Fold change vs veh, CNEP1R1 / RFU, BIVM-ERCC5 /// ERCC5 / Fold change vs veh, BIVM-ERCC5 /// ERCC5 / RFU, ILF3 / Fold change vs veh, ILF3 / RFU 11762660_at / Fold change /veh 11762660_at / RFU VCAN (11757783_s_at) / Fold change /veh VCAN (11757783_s_at) / RFU DDX43 (11728927_at) / Fold change /veh DDX43 (11728927_at) / RFU KRT8 (11758188_x_at) / Fold change /veh KRT8 (11758188_x_at) / RFU NKD1 (11759106_at) / Fold change /veh NKD1 (11759106_at) / RFU SRD5A1 (11742802_a_at) / Fold change /veh SRD5A1 (11742802_a_at) / RFU TPSAB1 /// TPSB2 (11721975_s_at) / Fold change /veh TPSAB1 /// TPSB2 (11721975_s_at) / RFU GSTM3 (11746129_a_at) / Fold change /veh GSTM3 (11746129_a_at) / RFU IL23R (11737362_x_at) / Fold change /veh IL23R (11737362_x_at) / RFU TMEM51 (11727254_a_at) / Fold change /veh TMEM51 (11727254_a_at) / RFU PIWIL2 (11732686_x_at) / Fold change /veh PIWIL2 (11732686_x_at) / RFU ORM1 (11744905_x_at) / Fold change /veh ORM1 (11744905_x_at) / RFU CCDC152 (11743942_at) / Fold change /veh CCDC152 (11743942_at) / RFU ECM1 (11717891_a_at) / Fold change /veh ECM1 (11717891_a_at) / RFU IL23R (11748794_a_at) / Fold change /veh IL23R (11748794_a_at) / RFU TNFAIP8L3 (11732012_x_at) / Fold change /veh TNFAIP8L3 (11732012_x_at) / RFU MBOAT4 (11741988_at) / Fold change /veh MBOAT4 (11741988_at) / RFU 11764193_at / Fold change /veh 11764193_at / RFU TMEM53 (11763286_at) / Fold change /veh TMEM53 (11763286_at) / RFU MAGEB2 (11727129_at) / Fold change /veh MAGEB2 (11727129_at) / RFU TMEM200A (11744735_a_at) / Fold change /veh TMEM200A (11744735_a_at) / RFU CCDC152 (11751479_a_at) / Fold change /veh CCDC152 (11751479_a_at) / RFU FAM211A (11726209_a_at) / Fold change /veh FAM211A (11726209_a_at) / RFU RGS16 (11746705_a_at) / Fold change /veh RGS16 (11746705_a_at) / RFU VCAN (11755009_s_at) / Fold change /veh VCAN (11755009_s_at) / RFU RHOB (11743442_s_at) / Fold change /veh RHOB (11743442_s_at) / RFU RGS16 (11720943_a_at) / Fold change /veh RGS16 (11720943_a_at) / RFU RGS16 (11720944_at) / Fold change /veh RGS16 (11720944_at) / RFU, VPS4B / Fold change vs veh, VPS4B / RFU, CREB1 / Fold change vs veh, CREB1 / RFU, DNAJC13 / Fold change vs veh, DNAJC13 / RFU, GNAQ / Fold change vs veh, GNAQ / RFU, CDK5R1 / Fold change vs veh, CDK5R1 / RFU, ZRANB3 / Fold change vs veh, ZRANB3 / RFU, CUL4A / Fold change vs veh, CUL4A / RFU, CCNY / Fold change vs veh, CCNY / RFU, UFL1 / Fold change vs veh, UFL1 / RFU, COG3 / Fold change vs veh, COG3 / RFU, DIAPH2 / Fold change vs veh, DIAPH2 / RFU, SKA2 / Fold change vs veh, SKA2 / RFU, AFF3 / Fold change vs veh, AFF3 / RFU, LMF1 / Fold change vs veh, LMF1 / RFU, IPO11 / Fold change vs veh, IPO11 / RFU, DFFB / Fold change vs veh, DFFB / RFU, FOXP1 / Fold change vs veh, FOXP1 / RFU, CARD8 / Fold change vs veh, CARD8 / RFU, STRN3 / Fold change vs veh, STRN3 / RFU, ADK / Fold change vs veh, ADK / RFU, RASSF2 / Fold change vs veh, RASSF2 / RFU, WIPF1 / Fold change vs veh, WIPF1 / RFU, LARP1B / Fold change vs veh, LARP1B / RFU, RASA1 / Fold change vs veh, RASA1 / RFU, RB1 / Fold change vs veh, RB1 / RFU, PPFIA1 / Fold change vs veh, PPFIA1 / RFU, MAT2A / Fold change vs veh, MAT2A / RFU, CCT5 / Fold change vs veh, CCT5 / RFU, WDR92 / Fold change vs veh, WDR92 / RFU, CUX1 / Fold change vs veh, CUX1 / RFU, TTC7A / Fold change vs veh, TTC7A / RFU, TMEM135 / Fold change vs veh, TMEM135 / RFU, DEPTOR / Fold change vs veh, DEPTOR / RFU, CPM / Fold change vs veh, CPM / RFU, DNAJB6 / Fold change vs veh, DNAJB6 / RFU, CACNA2D3 / Fold change vs veh, CACNA2D3 / RFU, DTX4 / Fold change vs veh, DTX4 / RFU, TFCP2 / Fold change vs veh, TFCP2 / RFU, GMCL1 /// GMCL1P1 / Fold change vs veh, GMCL1 /// GMCL1P1 / RFU, AEBP2 / Fold change vs veh, AEBP2 / RFU, SNHG1 /// SNORD22 /// SNORD25 /// SNORD26 /// SNORD27 /// SNORD28 /// SNORD29 /// SNORD31 / Fold change vs veh, SNHG1 /// SNORD22 /// SNORD25 /// SNORD26 /// SNORD27 /// SNORD28 /// SNORD29 /// SNORD31 / Fold change (Aza/veh), C12orf56 (ProbeSet 11735607_a_at) / Fold change (ACY-1035/veh), C12orf56 (ProbeSet 11735607_a_at) / Fold change (Aza/veh), FGFR1OP (ProbeSet 11751329_s_at) / Fold change (ACY-1035/veh), FGFR1OP (ProbeSet 11751329_s_at) / Fold change (Aza/veh), VPS36 (ProbeSet 11739960_a_at) / Fold change (ACY-1035/veh), VPS36 (ProbeSet 11739960_a_at) / RFU SYPL1 (11715823_x_at) / Fold change /veh SYPL1 (11715823_x_at) / RFU IGFBP7 (11715501_s_at) / Fold change /veh IGFBP7 (11715501_s_at) / RFU REEP3 (11722064_at) / Fold change /veh REEP3 (11722064_at) / RFU IGLL1 (11728026_x_at) / Fold change /veh IGLL1 (11728026_x_at): dose or concentration left out as unconfirmed
Conditions: ProbeSet 11741199_a_at; LIST B

SMILES: Nc1ncn([C@@H]2O[C@H](CO)[C@@H](O)[C@H]2O)c(=O)n1 [azacitidine]
- RFU, LRRCC1: 65.24 RFU
